Measured values: paper PMC11809180, “RA-PR058, a novel ramalin derivative, reduces BACE1 expression and phosphorylation of tau in Alzheimer’s disease mouse models” (Animal Cells and Systems, 2025)
Read-outs that look alike come from different tables or passages of the source.

Key:
BACE1 = BACE1 expression in SH-SY5Y cells under H2O2 oxidative stress (western blot); type: cell-based, human; settings: 10 μM RA-PR058 24 hours, then 200 μM H2O2 4 hours, normalized with β-Actin, n = 4
Procedure: Human neuroblastoma cell line, SH-SY5Y were maintained in DMEM (Welgene) supplemented with 10% fetal bovine serum (FBS, Gibco) and 1% penicillin/streptomycin (Capricorn) at 37 °C in a humidified atmosphere containing 5% CO2. […] [2024]). Samples for western blot analysis were prepared as previously described (Gwon et al. [2012]). Cells were lysed with T-PER^TM Tissue Protein Extraction Reagent (Thermo Fisher Scientific) supplemented with protease/phosphatase inhibitor cocktail (Thermo Fisher Scientific) and incubated at 4 °C for 10 minutes. After incubation, lysed samples were centrifuged at 13,000 x rpm for 10 minutes at 4 °C and the supernatant were used for western blot analysis. The cortices and hippocampi tissues were homogenized using RIPA lysis buffer (Millipore) supplemented with protease/phosphatase inhibitor cocktail and incubated at 4 °C for 30 minutes. Following incubation, lysed tissues were centrifuged at 13,000 x rpm for 30 minutes at 4 °C and the supernatant were used for western blot analysis. Protein concentrations were measured using Pierce^TM BCA Protein Assay Kits (Thermo Fisher Scientific). Equal amounts of proteins were mixed with NuPAGE^TM LDS Sample Buffer (Invitrogen) and 5% 2-mercaptoethanol (Sigma) and then boiled at 95 °C for 5 minutes. […] Protein bands were quantified using ImageJ (NIH).

[1] = tested on: cytochrome P450 (CYP) isoforms (CYP1A2, CYP2C9, CYP2C19, CYP2D6, and CYP3A); assay: Cytochrome P450 inhibition assay in human liver microsomes; type: in vitro ADME; settings: 10 μM RA-PR058, 20 minutes 37 ℃, with NADPH regenerating system
Procedure: Inhibitory potentials of RA-PR058 on cytochrome P450 (CYP) isoforms (CYP1A2, CYP2C9, CYP2C19, CYP2D6, and CYP3A) were evaluated. This assay was conducted by SPMED Co., Ltd (Republic of Korea). Human liver microsomes were incubated at 37 ℃ for 20 minutes with phosphate buffer (pH 7.4), each CYP substrate (for CYP1A2: phenacetin, CYP2C9: diclofenac, CYP2C19: S-mephenytoin, CYP2D6: dextromethorphan, CYP3A: midazolam), and 10 μM of RA-PR058 in the presence of an NADPH regenerating system. The reaction was terminated by adding an acetonitrile solution containing an internal standard. Following reaction termination, samples were centrifuged, and the supernatant was injected into an LC-MS/MS system to analyze the metabolites of each substrate drug.

[2] = Plasma pharmacokinetics after IV and PO administration; type: in vivo; settings: Sprague-Dawley, rat, 10 mg/kg, S.D. rats; for Cmax / half-life / AUC(0-t): in vivo; for AUC(0-t): read-out: AUC0-7h; for Tmax: plasma
Procedure: Pharmacokinetic assays were conducted by NeuroVis (Republic of Korea). 10 mg/kg of RA-PR058 was administered to Sprague–Dawley rats by either oral administration route or intravenous injection route. Blood sampling was conducted using the BASi Culex ABS system. After cannulation, catheters were inserted into the jugular vein and the carotid artery of the rats, with the system programmed to collect 200 μL samples. Collected blood samples were centrifuged at 12,000 x rpm for 10 minutes to separate plasma, which was then immediately stored at −80 ℃. For brain pharmacokinetics, 10 mg/kg of RA-PR058 was administered orally to Sprague–Dawley rats, followed by collection of both blood and brain tissue. After collection, samples were mixed with the internal standard, ofloxacin, and centrifuged at 13,000 x rpm for 5 minutes at 4 ℃. The resulting supernatants were then combined with 50% methanol and analyzed by LC-MS/MS.

Cl.N[C@@H](CCC(=O)NNc1ccccc1F)C(F)F [RA-PR058, (S)-4-amino-5,5-difluoro-N'-(2-fluorophenyl)pentanehydrazide hydrochloride]
H2O2-induced increase in BACE1 expression (BACE1): markedly attenuated
Decrease in mean control activity of CYP isoforms [1]: 12%
Cmax ([2]; IV): 4260 ng/mL
half-life ([2]; IV): 63.5 min
AUC(0-t) ([2]; IV): 5700 ng·h/mL
Cmax ([2]; PO): 3480 ng/mL
half-life ([2]; PO): 94.5 min
AUC(0-t) ([2]; PO): 6090 ng·h/mL
Tmax ([2]; IV): 17.5 min
Tmax ([2]; PO): 27.5 min
